US9585871B2, “Method for treating and curing leishmaniosis using fexinidazole” (Merial Limited, priority 2013, dated 2017)
Like-named read-outs stand apart in the source and are kept apart here.

How the values were obtained:
[1] = Multiple dosing study in dogs: systemic exposure (plasma) to fexinidazole and its metabolites; format: in vivo, dog; conditions: for concentration at 0 h / concentration at 0.5 h / concentration at 1 h / concentration at 2 h / concentration at 4 h / concentration at 8 h / concentration at 24 h / Cmax / Tmax / AUC(0-t): dog, plasma; for concentration at 0 h / concentration at 0.5 h / concentration at 1 h / concentration at 2 h / concentration at 4 h / concentration at 8 h / concentration at 24 h: oral, read-out: Average plasma concentrations of fexinidazole; for concentration at 2 h: Day 1, 2 hours; for concentration at 4 h: Day 1, 4 hours; for concentration at 8 h: Day 1, 8 hours; for concentration at 24 h: Day 1, 24 hours; for Cmax / Tmax / AUC(0-t): po; for AUC(0-t): read-out: AUC0-t (last)
Procedure: In an embodiment, the fexinidazole may be administered to the canine as an aqueous oral suspension, comprising 5% TWEEN 80 and 0.5% Methyl cellulose 400 cP (METHOCEL). Provided in this format, fexinidazole suspensions of 5, 20, and 80 mg fexinidazole/mL may be prepared such that 10 mL of each concentration contains 50, 200, and 800 mg fexinidazole, respectively.
Moreover, inventors expect that a wide variety of dosing regimens are now available to the skilled person to achieve the necessary and sufficient fexinidazole plasma levels. For example, and as further outlined in the Examples below, any dosing regimen that produces substantially similar fexinidazole plasma levels, as compared to those levels produced by giving the dogs about 60 mg/kg/day for about twenty-eight days, is expected to substantially or completely eliminate the Leishmania parasites. Table 1 presents the systemic fexinidazole exposure following dosing of dogs with 50, 200, and 800 mg/kg/day.

[2] = Toxicology studies in beagles, 90 days (13 weeks); format: in vivo; conditions: daily doses up to 125 mg/kg/day for 90 days (13 weeks)
Source text: Toxicology summary. In mice and rats, the maximum fexinidazole (FEX) dose after oral administration is 10 g/kg of body weight. […] Finally, as regards PK, labeled FEX and its metabolites were excreted within 3 days in the feces (52-58%) and urine (36-40%).

[3] = 50 mg/kg/day, 50 mg/kg/day oral
[4] = 200 mg/kg/day, 200 mg/kg/day oral
[5] = female, 50 mg/kg/day, Female Dog, 50 mg/kg/day oral, D1, mean ± SD, n = 3
[6] = female, 50 mg/kg/day, Female Dog, 50 mg/kg/day oral, D14, mean ± SD, n = 3
[7] = female, 50 mg/kg/day, Female Dog, 50 mg/kg/day oral, D28, mean ± SD, n = 3
[8] = female, 200 mg/kg/day, Female Dog, 200 mg/kg/day oral, D1, mean ± SD, n = 3
[9] = female, 200 mg/kg/day, Female Dog, 200 mg/kg/day oral, D14, mean ± SD, n = 3
[10] = female, 200 mg/kg/day, Female Dog, 200 mg/kg/day oral, D28, mean ± SD, n = 3
[11] = female, 800 mg/kg/day, Female Dog, 800 mg/kg/day oral, D1, mean ± SD, n = 5
[12] = female, 800 mg/kg/day, Female Dog, 800 mg/kg/day oral, D14, mean ± SD, n = 5
[13] = female, 800 mg/kg/day, Female Dog, 800 mg/kg/day oral, D28, mean ± SD, n = 5
[14] = male, 50 mg/kg/day, Male Dog, 50 mg/kg/day oral, D1, mean ± SD, n = 3
[15] = male, 50 mg/kg/day, Male Dog, 50 mg/kg/day oral, D14, mean ± SD, n = 3
[16] = male, 50 mg/kg/day, Male Dog, 50 mg/kg/day oral, D28, mean ± SD, n = 3
[17] = male, 200 mg/kg/day, Male Dog, 200 mg/kg/day oral, D1, mean ± SD, n = 3
[18] = male, 200 mg/kg/day, Male Dog, 200 mg/kg/day oral, D14, mean ± SD, n = 3
[19] = male, 200 mg/kg/day, Male Dog, 200 mg/kg/day oral, D28, mean ± SD, n = 3
[20] = male, 800 mg/kg/day, Male Dog, 800 mg/kg/day oral, D1, mean ± SD, n = 5
[21] = male, 800 mg/kg/day, Male Dog, 800 mg/kg/day oral, D14, mean ± SD, n = 5
[22] = male, 800 mg/kg/day, Male Dog, 800 mg/kg/day oral, D28, mean ± SD, n = 5

CSc1ccc(OCc2ncc([N+](=O)[O-])n2C)cc1 [Fexinidazole, fexinidazole]
Average plasma concentrations of fexinidazole ([1]; 50 mg/kg/day oral, Day 14, 2 hours): 26.8 ng/mL
Average plasma concentrations of fexinidazole ([1]; 50 mg/kg/day oral, Day 14, 4 hours): ~9 ng/mL
Average plasma concentrations of fexinidazole ([1]; 50 mg/kg/day oral, Day 14, 8 hours): <5 ng/mL
Average plasma concentrations of fexinidazole ([1]; 50 mg/kg/day oral, Day 14, 24 hours): <5 ng/mL
Average plasma concentrations of fexinidazole ([1]; 50 mg/kg/day oral, Day 28, 0 hours): <5 ng/mL
Average plasma concentrations of fexinidazole ([1]; 50 mg/kg/day oral, Day 28, 1 hour): 28.3 ng/mL
Average plasma concentrations of fexinidazole ([1]; 50 mg/kg/day oral, Day 28, 2 hours): 17.5 ng/mL
Average plasma concentrations of fexinidazole ([1]; 50 mg/kg/day oral, Day 28, 4 hours): 14.3 ng/mL
Average plasma concentrations of fexinidazole ([1]; 50 mg/kg/day oral, Day 28, 8 hours): ~5 ng/mL
Average plasma concentrations of fexinidazole ([1]; 50 mg/kg/day oral, Day 28, 24 hours): <5 ng/mL
Average plasma concentrations of fexinidazole ([1]; 200 mg/kg/day oral, Day 14, 2 hours): 70.2 ng/mL
Average plasma concentrations of fexinidazole ([1]; 200 mg/kg/day oral, Day 14, 4 hours): 27.6 ng/mL
Average plasma concentrations of fexinidazole ([1]; 200 mg/kg/day oral, Day 14, 8 hours): 13.5 ng/mL
Average plasma concentrations of fexinidazole ([1]; 200 mg/kg/day oral, Day 14, 24 hours): 10.2 ng/mL
Average plasma concentrations of fexinidazole ([1]; 200 mg/kg/day oral, Day 28, 0 hours): <5 ng/mL
Average plasma concentrations of fexinidazole ([1]; 200 mg/kg/day oral, Day 28, 1 hour): 65.4 ng/mL
Average plasma concentrations of fexinidazole ([1]; 200 mg/kg/day oral, Day 28, 2 hours): 44.6 ng/mL
Average plasma concentrations of fexinidazole ([1]; 200 mg/kg/day oral, Day 28, 4 hours): 23.5 ng/mL
Average plasma concentrations of fexinidazole ([1]; 200 mg/kg/day oral, Day 28, 8 hours): 12.4 ng/mL
Average plasma concentrations of fexinidazole ([1]; 200 mg/kg/day oral, Day 28, 24 hours): 12.4 ng/mL
concentration at 0 h ([1]; 50 mg/kg/day, 50 mg/kg/day oral, Day 1, 0 hours): < 5 ng/mL
concentration at 0.5 h ([1]; 50 mg/kg/day, 50 mg/kg/day oral, Day 1, 0.5 hours): 34.5 ng/mL
concentration at 1 h ([1]; 50 mg/kg/day, 50 mg/kg/day oral, Day 1, 1 hour): 30.3 ng/mL
concentration at 2 h [1, 3]: 23.8 ng/mL
concentration at 4 h [1, 3]: 12.6 ng/mL
concentration at 8 h [1, 3]: < 5 ng/mL
concentration at 24 h [1, 3]: < 5 ng/mL
concentration at 0 h ([1]; 50 mg/kg/day, 50 mg/kg/day oral, Day 14, 0 hours): < 5 ng/mL
concentration at 0.5 h ([1]; 50 mg/kg/day, 50 mg/kg/day oral, Day 14, 0.5 hours): 28.8 ng/mL
concentration at 1 h ([1]; 50 mg/kg/day, 50 mg/kg/day oral, Day 14, 1 hour): 29.5 ng/mL
concentration at 0 h ([1]; 200 mg/kg/day, 200 mg/kg/day oral, Day 1, 0 hours): < 5 ng/mL
concentration at 0.5 h ([1]; 200 mg/kg/day, 200 mg/kg/day oral, Day 1, 0.5 hours): 52.1 ng/mL
concentration at 1 h ([1]; 200 mg/kg/day, 200 mg/kg/day oral, Day 1, 1 hour): 61.3 ng/mL
concentration at 2 h [1, 4]: 45.9 ng/mL
concentration at 4 h [1, 4]: 22.6 ng/mL
concentration at 8 h [1, 4]: 9.9 ng/mL
concentration at 24 h [1, 4]: 13 ng/mL
concentration at 0 h ([1]; 200 mg/kg/day, 200 mg/kg/day oral, Day 14, 0 hours): 16.6 ng/mL
concentration at 0.5 h ([1]; 200 mg/kg/day, 200 mg/kg/day oral, Day 14, 0.5 hours): 53.4 ng/mL
concentration at 1 h ([1]; 200 mg/kg/day, 200 mg/kg/day oral, Day 14, 1 hour): 63.2 ng/mL
Metabolism ([1]; dogs, after single and repeated administration): extensively metabolized to the sulfone and sulfoxide derivatives
Cmax [1, 5]: 42.4 ± 10.6 ng/mL
Tmax [1, 5]: 1 ± 0.87 h
AUC(0-t) [1, 5]: 237 ± 105 ng·h/mL
Cmax [1, 6]: 41.9 ± 2.2 ng/mL
Tmax [1, 6]: 1.67 ± 0.58 h
AUC(0-t) [1, 6]: 246 ± 117 ng·h/mL
Cmax [1, 7]: 36.3 ± 15.1 ng/mL
Tmax [1, 7]: 1 h
AUC(0-t) [1, 7]: 87.1 ± 38.1 ng·h/mL
Cmax [1, 8]: 84.1 ± 36.7 ng/mL
Tmax [1, 8]: 1 h
AUC(0-t) [1, 8]: 454 ± 119 ng·h/mL
Cmax [1, 9]: 77.7 ± 50.8 ng/mL
Tmax [1, 9]: 2 h
AUC(0-t) [1, 9]: 443 ± 217 ng·h/mL
Cmax [1, 10]: 73 ± 12 ng/mL
Tmax [1, 10]: 1 h
AUC(0-t) [1, 10]: 377 ± 83.5 ng·h/mL
Cmax [1, 11]: 184 ± 75.6 ng/mL
Tmax [1, 11]: 1.2 ± 0.45 h
AUC(0-t) [1, 11]: 895 ± 437 ng·h/mL
Cmax [1, 12]: 152 ± 44 ng/mL
Tmax [1, 12]: 1.4 ± 0.55 h
AUC(0-t) [1, 12]: 1170 ± 309 ng·h/mL
Cmax [1, 13]: 101 ± 47.1 ng/mL
Tmax [1, 13]: 1 h
AUC(0-t) [1, 13]: 956 ± 378 ng·h/mL
Cmax [1, 14]: 31.2 ± 12.4 ng/mL
Tmax [1, 14]: 0.5 h
AUC(0-t) [1, 14]: 140 ± 147 ng·h/mL
Cmax [1, 15]: 26.5 ± 13 ng/mL
Tmax [1, 15]: 0.5 h
AUC(0-t) [1, 15]: 52.1 ± 29.4 ng·h/mL
Cmax [1, 16]: 20.3 ± 7.89 ng/mL
Tmax [1, 16]: 1 h
AUC(0-t) [1, 16]: 124 ± 67 ng·h/mL
Cmax [1, 17]: 54.9 ± 10.8 ng/mL
Tmax [1, 17]: 1 ± 0.87 h
AUC(0-t) [1, 17]: 419 ± 61.4 ng·h/mL
Cmax [1, 18]: 78.1 ± 23.5 ng/mL
Tmax [1, 18]: 1 ± 0.87 h
AUC(0-t) [1, 18]: 452 ± 41.1 ng·h/mL
Cmax [1, 19]: 57.9 ± 12.5 ng/mL
Tmax [1, 19]: 1 h
AUC(0-t) [1, 19]: 395 ± 15.8 ng·h/mL
Cmax [1, 20]: 100 ± 21.2 ng/mL
Tmax [1, 20]: 1.1 ± 0.55 h
AUC(0-t) [1, 20]: 776 ± 182 ng·h/mL
Cmax [1, 21]: 128 ± 56.9 ng/mL
Tmax [1, 21]: 1 h
AUC(0-t) [1, 21]: 929 ± 268 ng·h/mL
Cmax [1, 22]: 86.2 ± 38.5 ng/mL
Tmax [1, 22]: 1.2 ± 0.4 h
AUC(0-t) [1, 22]: 736 ± 141 ng·h/mL
adverse events (AEs) [2]: no observed adverse events
